{"source": "patent US12059393B2", "about": "“Compositions for topical treatment of radiation dermatitis” (Akos Biosciences, Inc, priority 2022, dated 2024)", "system": "3D in vitro skin model containing epidermal keratinocytes and dermal fibroblasts", "experiment": "LDH cytotoxicity assay in 3D in vitro skin model", "type": "cell-based", "details": "positive control, no UV; defines 100% cytotoxicity", "protocol": "A 3D in vitro skin model containing epidermal keratinocytes and dermal fibroblasts was used. Some tissues were irradiated with 200 mJ UVB/cm^2. Test materials were applied topically for 24 hours (after UVB exposure) and an MTT assay was used to check the viability of cells. The following treatment groups were used: • olive oil (no CBD); • CBD in olive oil in concentrations of 30, 60, 120, and 250 mg/mL; • No treatment; and • Triton-X® as positive control.\nCytotoxicity was assessed with a lactate dehydrogenase (LDH) assay using media collected from the wells of the tissues. Increased LDH activity is an indicator of damaged or dead cells.\nThe results are provided in the following Table A, with the untreated group defining 0% cytotoxicity and Triton-X defining 100% cytotoxicity. Lower cytotoxicity is better. * indicates p≤0.05 and ** indicates p≤0.01 statistical significance after performing unpaired t-test."}
{"substance": "Triton-X", "values": [{"measurement": "Cytotoxicity (%)", "result": 100, "unit": "%"}]}
